Each structure is given as a SMILES string. pIC50: −log10 of the molar value.

System in one data set: not listed separately
Nature of the data set: Cytotoxicity against human HepG2(2.2.15) cells after 8 days by MTT assay. The data set is classed as cell-based. In general terms: Formazan colour is commonly taken as a measure of viable cells.
As a reminder, the CC50 is the concentration that lowers cell viability or growth by half. Low values mean greater toxicity to the cells, high ones lower toxicity to the cells. As for `Nc1ccn([C@@H]2CS[C@H](CO)O2)c(=O)n1` [LAMIVUDINE], the CC50 at 192 h came to 2400 µM.

`O=c1c(CO)c(-c2ccc(O[C@@H]3O[C@H](CO)[C@@H](O)[C@H](O)[C@H]3O)c(O)c2)oc2cc(O[C@@H]3O[C@H](CO)[C@@H](O)[C@H](O)[C@H]3O[C@@H]3O[C@H](CO)[C@@H](O)[C@H](O)[C@H]3O)cc(O)c12` [PEDUNCULOSUMOSIDE E] came in with a CC50 at 192 h greater than 100 µM.

In the case of `COc1c(-c2ccc(O)c(O)c2)oc2cc(O)cc(O)c2c1=O` [3-O-METHYLQUERCETIN], the CC50 at 192 h was 2.1 µM. This counts as single-digit micromolar.

In the case of `COc1c(-c2ccc(O)c(O)c2)oc2cc(O[C@@H]3O[C@H](CO)[C@@H](O)[C@H](O)[C@H]3O)cc(O)c2c1=O` [TRANSILIN], the CC50 at 192 h was 5.4 µM. This CC50 at 192 h is about 2.6-fold higher than that of the compound before.

Regarding `O=c1c(CO)c(-c2ccc(O[C@@H]3O[C@H](CO)[C@@H](O)[C@H](O)[C@H]3O)c(O)c2)oc2cc(O)cc(O)c12`, the midpoint of cytotoxicity, the CC50 at 192 h, lay at 19.7 µM. This CC50 at 192 h is about 3.6-fold higher than that of the compound before.

In the case of `O=c1c2c(oc3cc(O)cc(O)c13)-c1ccc(O)c(O)c1CO2` [OPHIOGLONIN], it took 20.4 µM to reach half-maximal cytotoxicity (CC50 at 192 h).

Compound `COc1c(-c2ccc(O[C@@H]3O[C@H](CO)[C@@H](O)[C@H](O)[C@H]3O)c(O)c2)oc2cc(O[C@@H]3O[C@H](CO)[C@@H](O)[C@H](O)[C@H]3O)cc(O)c2c1=O` had a CC50 at 192 h of 7.9 µM.

The compound `O=c1c(O)c(-c2ccc(O)c(O)c2)oc2cc(O)cc(O)c12` [QUERCETIN] registered a CC50 at 192 h of 38.1 µM.

In turn, `O=c1c(CO)c(-c2ccc(O[C@@H]3O[C@H](CO)[C@@H](O)[C@H](O)[C@H]3O)c(O)c2)oc2cc(O[C@@H]3O[C@H](CO)[C@@H](O)[C@H](O)[C@H]3O)cc(O)c12` [PEDUNCULOSUMOSIDE F] returned a CC50 at 192 h of 56.7 µM.

Another data set deals with Hepatitis B virus. Nature of the data set: Antiviral activity against HBV transfected in human HepG2(2.2.15) cells assessed as inhibition of HBsAg secretion by ELISA. The data set is classed as functional, organism-based. On the technique in general: ELISA stands for enzyme-linked immunosorbent assay.
Usually pIC50 stands for the IC50 on a negative log10 scale, so that one unit is a factor of ten. Regarding `Nc1ccn([C@@H]2CS[C@H](CO)O2)c(=O)n1` [LAMIVUDINE], the pIC50 is 4.24.

Source of the values: ChEMBL document CHEMBL1772944, “Homoflavonoid glucosides from Ophioglossum pedunculosum and their anti-HBV activity” (J Nat Prod, 2011).
